Reference: PMC12197429, “Evaluation of the Antileishmanial Activity of Some Benzimidazole Derivatives Using In Vitro and In Silico Techniques” (Veterinary Sciences, 2025)
In brackets after ≈: the same amount, converted by molar mass. Read-outs that look alike come from different tables or passages of the source.

Assays:
[1] = test system: L. (L.) major promastigotes; experiment: In vitro antileishmanial activity (CellTiter-Glo luminescent cell viability); type: cell-based, Leishmania (L.) major; parameters: key to Activity class against promastigotes based on IC50: very active (IC50 < 10 μg/mL); active (IC50 > 10 < 50 μg/mL); moderately active (IC50 > 50 < 100 μg/mL); inactive (IC50 > 100 μg/mL); details: for IC50: Leishmania major; for Selectivity index (SI): SI = CC50 (L929)/IC50 (L. (L.) major promastigotes)
Procedure: Protozoan isolates were obtained from the Parasite Bank at the Department of Parasitology, Faculty of Medicine, Manisa Celal Bayar University. The subsequent procedure for acquiring promastigotes was as follows: the major L. (L.) isolate was classified as MHOM/TR/2014/CBL-LM. It was preserved in liquid nitrogen and defrosted by placing it in a water bath at 37 °C for two minutes after its removal from preservation. Subsequent to melting, the NNN medium was inoculated and incubated in an incubator at 25 °C. The reproductive condition of the protozoan was assessed by making coverslips and slides twice daily. Following parasite replication, the cells were transferred from the NNN medium to the RPMI-1640 medium (Gibco, Paisley, Scotland, UK) to facilitate further proliferation. Before application, 10% fetal calf serum, 1% penicillin/streptomycin, and 1% gentamicin were added to a widely available commercial medium. Distribution was conducted using 5 milliliters per 25 mL flask, and cultivation was performed by adding 50 μL of the cultured promastigotes. Flasks designated for cultivation were incubated in a 25 °C incubator. Parasite reproduction was observed, and the medium was supplemented every 2–3 days. Subsequently, the number of promastigotes was quantified using a Thoma chamber, yielding a concentration of 10^6 promastigotes/mL, and a suspension comprising promastigotes was formulated.
The synthesized compounds were dissolved in DMSO to a final concentration of no more than 0.5% [51]. Based on preliminary studies, the K1 compound was prepared at concentrations ranging from 0.23 µg/mL to 30 µg/mL, while the K2, K3, and K4 compounds were prepared at concentrations ranging from 1.95 µg/mL to 250 µg/mL.
The assay was conducted using 96-well flat-bottom microtiter plates, with three replicate wells per experimental group. The groups included a blank control, parasite control (no treatment), drug control (Amphotericin B), and test groups for compounds K1, K2, K3, and K4. Each well was filled with 100 µL of RPMI-1640 medium supplemented with 10% fetal calf serum, 1% penicillin/streptomycin, and 1% gentamicin. For the four test compounds and Amphotericin B, 100 µL of the respective solution was added to the first well of each group. The contents were mixed thoroughly using an automated dispensing pipette, followed by serial dilutions down the respective wells. Promastigote suspensions, previously counted using a Thoma counting chamber, were added at 100 µL per well to all wells except those designated as blanks. No parasites were added to the blank wells. The plates were then covered with lids, sealed with parafilm, and incubated at 25 °C. Following incubation, cell viability was assessed using the CellTiter-Glo® Luminescent Cell Viability Assay Kit (Promega, Madison, WI, USA). This experimental procedure was repeated in three independent experiments conducted at different time points.
It is calculated as the ratio of the cytotoxic concentration (CC50) required to cause 50% cell death in mammalian cells to the inhibitory concentration (IC50) required to kill 50% of the parasites. The selectivity index values of benzimidazole derivatives for L. (L.) major promastigotes were determined using the following equation: SI = CC50/IC50 [55].

Cytotoxicity test (MTT) = type: cell-based, mouse; details: L929 mouse fibroblast cells, 48 h, MTT
Procedure: (§1) The cytotoxic effects of the benzimidazole derivatives and AmpB were determined using the L929 cell line (American Type Culture Collection, Manassas, VA, USA). In total, 100 µL of the cell suspension (10^5/mL) was added to each well comprising sterile, flat-bottomed 96-well microplates. The microplates were then incubated at 37 °C in a 5% CO2 incubator for 24 h. Cytotoxic activity was evaluated using the same concentrations applied in the antileishmanial activity assessment. For compound K1, serial dilutions were prepared in the range of 0.23–30 µg/mL, and for the other compounds, in the range of 1.95–250 µg/mL. These dilutions were added to a second microplate, and 100 µL from each well was transferred to the first plate. The plates were then incubated under the same conditions for an additional 48 h.
(§2) Cell viability was determined using the 3-(4.5-dimethylthiazol-2-yl)-2.5-diphenyltetrazolium bromide) (Sigma, Kawasaki, Japan) method. After the completion of the incubation period, all media from the microplates, both containing and lacking the active ingredient, were discarded. Subsequently, 100 μL of MTT suspension was added to each well, and the plates were incubated in a CO2 incubator at 37 °C for four hours. At the end of the incubation period, all wells in the microplates were emptied, and 100 μL of pure DMSO (to dissolve the formazan crystals) was pipetted into each well and incubated under the same conditions for 30 min. Absorbance was measured at 570 nm using a spectrophotometer (Biotek 800TS, Winooski, VT, USA). CC50 values were determined using GraphPad Prism version 8.4.2. All experiments were performed in triplicate, with three independent trials and two replicates per trial.

L929 cell line = experiment: Cytotoxicity test (MTT); type: cell-based, mouse; details: L929 cells
Procedure: as §1, §2

[2] = test system: L. (L.) major promastigotes; experiment: Morphological alterations of promastigotes by Giemsa staining; type: cell-based, Leishmania (L.) major; details: serial dilutions 0.23 µg/mL to 30 µg/mL, 48 h
Procedure: The morphological alterations caused by compound K1 at various concentrations in L. (L.) major promastigotes were assessed at the 48 h mark utilizing Giemsa staining (Figure 3).
Figure 3 Control (a) and serial dilutions of the K1 compound (ranging from 0.23 µg/mL to 30 µg/mL) (b–l) in wells containing L. (L.) major promastigotes (100× magnification).

[3] = L. (L.) major promastigotes (MHOM/TR/2014/CBL-LM), 25 °C, CellTiter-Glo, read-out: IC50 (antileishmanial activity)

Row | SMILES | IC50 [1, 3] | Selectivity index (SI) [1] | CC50 at 48 h (Cytotoxicity test (MTT)) | Cytotoxic effect on L929 cells (L929 cell line) | Morphological alterations in promastigotes [2] | Activity class against promastigotes based on IC50 ([1]; L. (L.) major promastigotes) | IC50 ([1]; L. (L.) major promastigotes, read-out: Activity class against promastigotes based on IC50)
1 | C[C@@H]1[C@H](O)[C@@H](C)/C=C/C=C/C=C/C=C/C=C/C=C/C=C/[C@H](O[C@@H]2O[C@H](C)[C@@H](O)[C@H](N)[C@@H]2O)C[C@@H]2O[C@](O)(C[C@@H](O)C[C@@H](O)[C@H](O)CC[C@@H](O)C[C@@H](O)CC(=O)O[C@H]1C)C[C@H](O)[C@H]2C(=O)O [AmpB, Amphotericin B, reference compound] | 0.274 µg/mL (≈ 0.297 µM) | – | – | – | – | – | –
2 | Cc1nc(-c2cccc(Cl)c2)cn2c1nc1ccccc12 [K2] | 8.89 µg/mL (≈ 30.3 µM) | 7.08 | 63 µg/mL (≈ 214 µM) | – | – | – | –
3 | CC(=O)c1nc2ccccc2n1CC(=O)c1cccc(Cl)c1 [K1] | 0.679 µg/mL (≈ 2.17 µM) | 368.25 | 250 µg/mL (≈ 799 µM) | not observed | decreases in the number of promastigotes and morphological structural disruptions were observed | – | –
4 | Cc1nc(-c2ccccc2)cn2c1nc1ccccc12 [K3] | 45.1 µg/mL (≈ 174 µM) | 0.012 | 0.56 µg/mL (≈ 2.16 µM) | – | – | active | –
5 | Cc1nc(-c2ccc(Cl)cc2)cn2c1nc1ccccc12 [K4] | 69.2 µg/mL (≈ 236 µM) | 4.22 | 292 µg/mL (≈ 994 µM) | – | – | – | 50 to 100 µg/mL (≈ 170 to 340 µM)
